Values quoted from earlier work, collected in patent US20170157095A1, “ALLISARTAN ISOPROXIL SOLID DISPERSION AND PHARMACEUTICAL COMPOSITION” (SHENZHEN SALUBRIS PHARMACEUTICALS CO., LTD, priority 2014, published 2017).

Q: Which solubility in water does the source give for `CCCCc1nc(Cl)c(C(=O)OCOC(=O)OC(C)C)n1Cc1ccc(-c2ccccc2-c2nnn[nH]2)cc1` [Allisartan isoproxil, 2-butyl-4-chloro-1-[2′-(1H-tetrazol-5-yl)-1,1′-biphenyl-methyl]-imidazole-5-carboxylic acid, 1-[(isopropoxy)-carbonyloxy]-methyl ester] here?
A: The solubility in water was “low”.
